Results taken from paper PMC5540198, “A phase I trial of ganetespib in combination with paclitaxel and trastuzumab in patients with human epidermal growth factor receptor-2 (HER2)-positive metastatic breast cancer” (Breast Cancer Research : BCR, 2017).
Like-named read-outs stand apart in the source and are kept apart here. Marks after values point to notes of the source that are not given here.

Tests used:
[1] = test system: HER2-positive and ER-positive breast cancer; parameters: method as in PMID 18430202; details: intravenous, single agent; among 10 patients; cited from earlier work
[2] = parameters: method as in earlier work; details: PET agent labelled with ^124I; cited from earlier work
[3] = test system: HER2-positive metastatic breast cancer; parameters: method as in PMID 22781552; details: plus trastuzumab; cited from earlier work
[4] = test system: patients with HER2-positive metastatic breast cancer; assay: Phase I dose-escalation trial: safety, DLT and RP2D of ganetespib with paclitaxel and trastuzumab; assay type: in vivo, human
Description: Patients were eligible if they were aged ≥ 18 years, had locally advanced or metastatic HER2-positive disease (defined as FISH ratio ≥ 2.0 or immunohistochemistry (IHC) 3+), ECOG ≤ 2, measurable disease per RECIST 1.1 [23], and adequate end organ function (defined as hemoglobin ≥ 9 g/dl, absolute neutrophil count (ANC) ≥ 1.5 × 10^9/L, platelets ≥ 100 × 10^9/L, bilirubin ≤ 1.5 upper limit of normal (ULN), aspartate aminotransferase (AST) and alanine aminotransferase (ALT) ≤ 2.5 ULN, and serum creatinine ≤ 1.5 ULN). Patients must have received prior trastuzumab and those with estrogen receptor (ER)-positive disease must have received prior endocrine therapy. Any number of prior lines of chemotherapy in the metastatic setting was allowed. Progression on prior treatment with pertuzumab and T-DM1 was required (unless heavily pretreated prior to FDA approval of pertuzumab for first-line treatment of HER2-positive metastatic breast cancer (6/2012) and/or T-DM1 (2/2013)).
Patients received intravenous infusions of trastuzumab and paclitaxel with ganetespib on days 1, 8, and 15 and of trastuzumab and paclitaxel on day 22 of a 28-day cycle. The sequence of administration was trastuzumab (2 mg/kg) followed by paclitaxel (80 mg/m^2) followed by ganetespib. If the patient’s last dose of trastuzumab was >21 days before enrollment, they received a loading dose of trastuzumab at 4 mg/kg over 90 minutes. Ganetespib was then administered intravenously over 60 minutes. The starting dose of ganetespib was 100 mg/m^2, and if there were no DLTs the next cohort would escalate to 150 mg/m^2. A further dose level of 125 mg/m^2 was incorporated in the circumstance of good tolerance of the 100 mg/m^2 but poor tolerance of the 150 mg/m^2 dose levels. There was no dose escalation for paclitaxel and trastuzumab. Therapy was continued until disease progression or unacceptable toxicity.
Patients were examined and assessed for toxicities during and prior to each cycle. Toxicity was graded according to National Cancer Institute (NCI) CTCAE version 4.0 (http://ctep.cancer.gov/protocolDevelopment/electronic_applications/ctc.htm#ctc_40). Patients were evaluated for DLT during cycle 1. DLT was defined as any drug-related grade ≥ 4 nonhematologic adverse events (AEs) or any grade 3 nonhematologic AEs not improving to baseline or grade ≤ 1 by day 14; grade 4 neutropenia lasting ≥ 7 days, or febrile neutropenia, grade 4 thrombocytopenia, or any grade 3 thrombocytopenia that has not recovered to grade ≤ 2 by day 7; or any treatment-related toxicity prompting a dose reduction of ganetespib during the DLT observation period.
Paclitaxel dose reductions were not permitted during the DLT observation period. For dosing beyond cycle 1, paclitaxel was held if patients experienced any other grade 3 or 4 toxicity thought to be related to paclitaxel until symptoms resolved to grade 1/baseline grade. One dose reduction for paclitaxel to 65 mg/m^2 was permitted.

[5] = test system: HER2-positive metastatic breast cancer; assay: Phase I trial: anti-tumor activity by RECIST 1.1; assay type: in vivo, human
Method: The sequence of administration was trastuzumab (2 mg/kg) followed by paclitaxel (80 mg/m^2) followed by ganetespib. If the patient’s last dose of trastuzumab was >21 days before enrollment, they received a loading dose of trastuzumab at 4 mg/kg over 90 minutes. Ganetespib was then administered intravenously over 60 minutes. The starting dose of ganetespib was 100 mg/m^2, and if there were no DLTs the next cohort would escalate to 150 mg/m^2. A further dose level of 125 mg/m^2 was incorporated in the circumstance of good tolerance of the 100 mg/m^2 but poor tolerance of the 150 mg/m^2 dose levels. There was no dose escalation for paclitaxel and trastuzumab. Therapy was continued until disease progression or unacceptable toxicity. Patients were evaluated for response initially after two cycles and then every three cycles thereafter using the RECIST criteria. All patients with PR or complete response (CR) were required to have confirmation of response 4 weeks after the criteria for response were first met. The best overall response was defined as the best response recorded from the start of treatment until disease progression or withdrawal from the study. […] The CBR was defined as the proportion of patients whose best overall response, according to RECIST, was CR, PR, or SD lasting for at least 24 weeks.

[6] = test system: metastatic breast cancer; parameters: method as in PMID 24512858; details: cited from earlier work
[7] = Pharmacokinetics of paclitaxel in plasma, cycle 1 day 8 to day 9; assay type: in vivo, human
Method: Blood samples for determination of plasma concentrations of paclitaxel were collected on cycle 1, day 8 through cycle 1, day 9 at the following time points after trastuzumab infusion and relative to the start of the paclitaxel infusion: 5 minutes prior to treatment, and 30 and 60 minutes (immediately prior to stopping the paclitaxel infusion pump and starting the ganetespib infusion) after start of paclitaxel infusion. Blood samples were also collected at the following time points after starting ganetespib infusion: 1.5, 2, 4, 7, 21, 24, 27, and 31 hours. Each blood sample (3–5 ml) was collected in sodium heparin tubes and transferred into two polypropylene tubes (1 ml each) and stored at –80 °C. PK were performed in collaboration with Synta Pharmaceuticals, Inc. PK parameters of paclitaxel (such as the area under the curve (AUC) and the maximum serum concentration (Cmax)) were examined descriptively to evaluate the effect of ganetespib on these measures.

[8] = test system: HER2-positive breast cancer; parameters: method as in PMID 23580070; details: in combination with trastuzumab; cited from earlier work
[9] = test system: trastuzumab-refractory HER2-positive metastatic breast cancer; parameters: method as in PMID 18048823, PMID 21558407; details: in combination with trastuzumab; cited from earlier work

SMILES: CCNC(=O)c1noc(-c2cc(C(C)C)c(O)cc2O)c1-c1ccc(CN2CCOCC2)cc1 [NVP-AUY922]
- confirmed PR by RECIST, number [1]: one
- partial metabolic responses on FDG-PET, number [1]: two

SMILES: CC(C)NCCCn1c(Sc2cc3c(cc2[124I])OCO3)nc2c(N)ncnc21 [^124I-PU-H71]
- half-life [2]: 96.5 h

SMILES: CO[C@H]1/C=C\C=C(/C)C(=O)NC2=CC(=O)C(NCCN(C)C)=C(C[C@@H](C)C[C@H](OC)[C@H](O)[C@@H](C)/C=C(\C)[C@@H]1OC(N)=O)C2=O [alvespimycin]
- partial response (PR), number of cases [3]: one
- stable disease (SD) lasting >6 months, number of cases [3]: six

SMILES: CC(C)c1cc(-c2n[nH]c(=O)n2-c2ccc3c(ccn3C)c2)c(O)cc1O [ganetespib, 5-(2,4-dihydroxy-5-(1-methylethyl)phenyl)-4-(1-methyl-1H-indol-5-yl)-2,4-dihydro-(1,2,4)triazol-3-one]
- recommended phase II dose (RP2D) ([4]; in combination with weekly paclitaxel plus trastuzumab): 150 mg/m^2
- anemia, grade 1/2, drug-related ([4]; nine patients): 44%
- diarrhea, grade 1/2, drug-related ([4]; nine patients): 78%
- elevated AST or ALT, grade 1/2, drug-related ([4]; nine patients): 32%
- fatigue, grade 1/2, drug-related ([4]; nine patients): 67%
- nausea, grade 1/2, drug-related ([4]; nine patients): 32%
- rash, grade 1/2, drug-related ([4]; nine patients): 32%
- grade 4 AEs related to ganetespib ([4]; nine patients, CTCAE 4.0): no grade 4 AEs
- patients with dose-limiting toxicities (DLTs) ([4]; nine patients, cycle 1, 100 and 150 mg/m^2 cohorts): None
- Grade 3 ALT, increased, N patients ([4]; of nine patients): 1
- Grade 3 phosphorus, decreased, N patients ([4]; of nine patients): 1
- Grade 3 pruritus, N patients ([4]; of nine patients): 1
- overall response rate (ORR), confirmed partial responses ([5]; ganetespib 100 or 150 mg/m^2 days 1, 8, 15 with weekly paclitaxel 80 mg/m^2 and trastuzumab 2 mg/kg, 2/9 patients, both in 150 mg/m^2 cohort): 22%
- clinical benefit rate (CBR: CR, PR or SD at least 24 weeks) ([5]; triplet regimen, 4/9 patients): 44%
- median progression-free survival ([5]; triplet regimen, nine patients): 20 weeks
- progression-free survival, range ([5]; triplet regimen, nine patients): 8–55 weeks
- ORR ([6]; single-agent ganetespib): 15%
- cases of SD in HER2-positive patients, number ([6]; single-agent, HER2-positive metastatic breast cancer): six
- confirmed PRs, number ([6]; single-agent, HER2-positive, trastuzumab-refractory metastatic breast cancer): two
- SDs, total number ([6]; single-agent, six HER2-positive and one TNBC): seven

SMILES: CC(=O)O[C@H]1C(=O)[C@@]2(C)[C@H]([C@H](OC(=O)c3ccccc3)[C@]3(O)C[C@H](OC(=O)[C@H](O)[C@@H](NC(=O)c4ccccc4)c4ccccc4)C(C)=C1C3(C)C)[C@]1(OC(C)=O)CO[C@@H]1C[C@@H]2O [paclitaxel]
- Grade 3 blurred vision/grade 3 dry eyes (in same patient), N patients ([4]; of nine patients, attributable to paclitaxel): 1^a
- Tmax ([7]; human, in vivo, iv): 1.0 ± 0.0 h
- half-life ([7]; human, in vivo, iv): 13.6 ± 3.3 h
- Tmax ([7]; human, in vivo, iv, Tmax): 0.8 ± 0.3 h
- Cmax ([7]; human, in vivo, iv, paclitaxel 80 mg/m^2 i.v., ganetespib 100 mg/m^2, n=3): 3340 ± 1270 ng/mL
- T1/2 ([7]; paclitaxel 80 mg/m^2 i.v., ganetespib 100 mg/m^2, n=3): 12.9 ± 0.4 h

SMILES: C=CCNc1c(O)cc2c(O)c1C[C@@H](C)C[C@H](OC)[C@H](O)[C@@H](C)/C=C(\C)[C@H](OC(N)=O)[C@@H](OC)/C=C\C=C(/C)C(=O)N2 [retaspimycin]
- patients with stable disease [8]: 62%

SMILES: C=CCNC1=C2C[C@@H](C)C[C@H](OC)[C@H](O)[C@@H](C)/C=C(\C)[C@H](OC(N)=O)[C@@H](OC)/C=C\C=C(/C)C(=O)NC(=CC1=O)C2=O [tanespimycin]
- clinical benefit rate (CBR) [9]: 59%
- response rate [9]: 22%
